ChEMBL document CHEMBL1158301, “Isolation of guaianoid pigments from the gorgonian Calicogorgia granulosa” (1996)

Assays:
Format in all cases: functional
Details in all cases: read-out: IZ
Candida albicans = assay: Antimicrobial activity against Candida albicans at 25 ug/mL by paper disk assay
Escherichia coli = assay: Antimicrobial activity against Escherichia coli at 25 ug/mL by paper disk assay
Bacillus subtilis = assay: Antimicrobial activity against Bacillus subtilis at 25 ug/mL by paper disk assay

Work on `Cc1cc(-c2cc(C)c3cc(C(C)C)ccc(C)c2-3)c2c(C)ccc(C(C)C)cc1-2` yielded a zone of inhibition at 25 µg/mL (Candida albicans) of 5 mm, a zone of inhibition at 25 µg/mL (Escherichia coli) of 3 mm and a zone of inhibition at 25 µg/mL (Bacillus subtilis) of 8 mm.

`Cc1cc(Cc2cc(C)c3cc(C(C)C)ccc(C)c2-3)c2c(C)ccc(C(C)C)cc1-2` gave a zone of inhibition at 25 µg/mL (Escherichia coli) of 3 mm and a zone of inhibition at 25 µg/mL (Bacillus subtilis) of 3 mm.
